The record followed here is US20230416227A1, “PLASMA KALLIKREIN INHIBITORS” (Merck Sharp & Dohme LLC, priority 2020, published 2023).

As usually defined, the IC50 is the concentration needed to halve the response being measured.

One assay deals with T1, Human plasma kallikrein (Homo sapiens, UniProt P03952).
T1 construct: yields a heavy chain (371 amino acids) and a light chain (248 amino acids); purchased Enzyme Research Laboratories
Briefly: Plasma Kallikrein Assay. It counts as biochemical. The following applies: purified Human plasma kallikrein 0.5 nM, substrate Acetyl-K-P-R-AFC, pH 7.4.

For a further assay, the target named is human factor XIa (Homo sapiens, UniProt P03951). The assay is described as follows: Factor XIa Assay. In kind it is biochemical. The following applies: human factor XIa 0.04 nM, substrate GPR-AFC, 30 min pre-incubation at 25° C., pH 7.4; read-out: FXIa IC50. The method, then: The effectiveness of a compound of the present invention as an inhibitor of Coagulation factor XIa can be determined using a relevant purified serine protease, and an appropriate synthetic substrate. The rate of hydrolysis of the chromogenic or fluorogenic substrate by the relevant serine protease was measured both in the absence and presence of compounds of the present invention. Assays were conducted at rt or at 37° C. […] A decrease in the rate of fluorescence change in the presence of inhibitor is indicative of enzyme inhibition. Such methods are known to one skilled in the art. The results of this assay are expressed as the half-maximal inhibitory concentrations (IC50), or the inhibitory constant, Ki.
Sequence of human factor XIa (P03951 388-625 limits assumed): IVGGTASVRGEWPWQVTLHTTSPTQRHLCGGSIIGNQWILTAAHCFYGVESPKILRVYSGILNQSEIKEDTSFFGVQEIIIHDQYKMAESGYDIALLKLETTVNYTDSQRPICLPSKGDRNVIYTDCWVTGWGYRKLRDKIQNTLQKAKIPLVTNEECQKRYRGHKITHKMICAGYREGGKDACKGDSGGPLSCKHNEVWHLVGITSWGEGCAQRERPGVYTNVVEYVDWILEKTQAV
Sequence of human factor XIa (P03951 19-387 partner limits assumed): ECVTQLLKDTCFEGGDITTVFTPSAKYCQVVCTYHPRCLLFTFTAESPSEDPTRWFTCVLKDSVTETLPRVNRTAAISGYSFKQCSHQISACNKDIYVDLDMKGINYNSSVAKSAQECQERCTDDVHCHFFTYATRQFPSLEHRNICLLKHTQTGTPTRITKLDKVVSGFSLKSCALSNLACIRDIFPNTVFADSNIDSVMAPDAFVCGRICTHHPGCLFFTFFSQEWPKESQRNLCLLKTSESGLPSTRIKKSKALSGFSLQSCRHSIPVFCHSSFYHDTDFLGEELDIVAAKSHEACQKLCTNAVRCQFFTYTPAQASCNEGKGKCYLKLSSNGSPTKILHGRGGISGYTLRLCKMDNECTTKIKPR
Compounds were pre-incubated for 30 min at 25° C. with human (0.04 nM) factor XIa in 50 mM HEPES buffer with 150 mM sodium chloride, 5 mM calcium chloride, 0.1% PEG 8000, pH 7.4. factor XIa enzymatic activity was determined by addition of the substrate glycine-proline-arginine-7-amido-4-trifluoromethylcoumarin (GPR-AFC) and measurement of the fluorescence at 400/505 nm after a 60 min incubation at 25° C. The % inhibition for each data point was calculated from the data and analyzed using the log (inhibitor) vs. response four parameters equation to determine the half-maximal inhibitory concentrations (IC50). The IC50 were converted to equilibrium inhibitory constants (Ki) using the Cheng-Prusoff equation.

T1 sequence (P03952 391-638 limits assumed): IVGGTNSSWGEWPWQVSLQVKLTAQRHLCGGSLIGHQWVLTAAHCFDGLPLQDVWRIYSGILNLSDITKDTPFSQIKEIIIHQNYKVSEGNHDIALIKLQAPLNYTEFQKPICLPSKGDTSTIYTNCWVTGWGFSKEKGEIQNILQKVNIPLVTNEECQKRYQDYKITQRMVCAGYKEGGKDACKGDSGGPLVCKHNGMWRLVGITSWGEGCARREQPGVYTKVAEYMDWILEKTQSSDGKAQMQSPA
T1 sequence (P03952 20-390 partner limits assumed): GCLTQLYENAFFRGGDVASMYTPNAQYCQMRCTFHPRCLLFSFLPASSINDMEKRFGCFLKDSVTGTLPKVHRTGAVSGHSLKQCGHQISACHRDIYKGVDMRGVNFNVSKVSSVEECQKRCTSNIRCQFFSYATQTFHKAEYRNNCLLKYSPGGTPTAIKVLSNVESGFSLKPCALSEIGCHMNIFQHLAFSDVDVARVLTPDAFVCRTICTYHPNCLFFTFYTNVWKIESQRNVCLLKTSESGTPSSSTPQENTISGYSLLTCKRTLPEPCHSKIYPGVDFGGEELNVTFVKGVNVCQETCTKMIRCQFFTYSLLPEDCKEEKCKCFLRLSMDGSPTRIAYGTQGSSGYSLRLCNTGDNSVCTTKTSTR

Consider `O=C(Nc1cnn(C(CO)c2cnc(N3CC4CC4C3)nc2)c1)c1cncc(-c2c(C(F)F)ccc(Cl)c2F)n1` (single isomer, unassigned) [Example 45, N-(1-((R or S)-1-(2-(3-Azabicyclo[3.1.0]hexan-3-yl)pyrimidin-5-yl)-2-hydroxyethyl)-1H-pyrazol-4-yl)-6-(3-chloro-6-(difluoromethyl)-2-fluorophenyl)pyrazine-2-carboxamide], for which the IC50 on Human plasma kallikrein was found to be 23.2 nM; at human factor XIa, 992 nM.
In the same order, the values of `Cc1ncc(-c2c(C(F)F)ccc(Cl)c2F)nc1C(=O)Nc1cnn(C(CO)c2cnc(N3CCC3)nc2)c1` (single isomer, unassigned) [Example 46, (S or R)-N-(1-(1-(2-(Azetidin-1-yl)pyrimidin-5-yl)-2-hydroxyethyl)-1H-pyrazol-4-yl)-6-(3-chloro-6-(difluoromethyl)-2-fluorophenyl)-3-methylpyrazine-2-carboxamide] are 3.7 nM and 595 nM.
Regarding `Cc1ncc(-c2c(C(F)F)ccc(Cl)c2F)nc1C(=O)Nc1cnn(C(CO)c2cnc(N3CCC3)nc2)c1` (single isomer, unassigned) [Example 47, (R or S)-N-(1-(1-(2-(Azetidin-1-yl)pyrimidin-5-yl)-2-hydroxyethyl)-1H-pyrazol-4-yl)-6-(3-chloro-6-(difluoromethyl)-2-fluorophenyl)-3-methylpyrazine-2-carboxamide], the half-inhibitory concentration (IC50) on Human plasma kallikrein turned out to be 10.6 nM; on human factor XIa, 326 nM.
Consider `C[C@H](c1cnc(N2CCC2)nc1)n1cc(NC(=O)c2cncc(-c3c(C(F)(F)F)ccc(Cl)c3F)n2)cn1` (single isomer, unassigned) [Example 54], for which the IC50 is 25.7 nM on Human plasma kallikrein and 3030 nM on human factor XIa.
In the same order, the values of `C[C@@H](c1cnc(N2CCC2)nc1)n1cc(NC(=O)c2cncc(-c3c(C(F)(F)F)ccc(Cl)c3F)n2)cn1` (single isomer, unassigned) [Example 55] are 24.4 nM and 3940 nM.
Take `CC(c1cnc(N2CCC2)nc1)n1cc(NC(=O)c2cncc(-c3c(OC(F)F)ccc(Cl)c3F)n2)cn1` (single isomer, unassigned) [Example 56, (R or S)-N-(1-(1-(2-(Azetidin-1-yl)pyrimidin-5-yl)ethyl)-1H-pyrazol-4-yl)-6-(3-chloro-6-(difluoromethoxy)-2-fluorophenyl)pyrazine-2-carboxamide]: the figures for the 50% inhibitory concentration (IC50) against Human plasma kallikrein and on human factor XIa were 27.7 nM and 1490 nM, respectively.
As to `CC(c1cnc(N2CCC2)nc1)n1cc(NC(=O)c2cncc(-c3c(OC(F)F)ccc(Cl)c3F)n2)cn1` (single isomer, unassigned) [Example 57, (S or R)-N-(1-(1-(2-(Azetidin-1-yl)pyrimidin-5-yl)ethyl)-1H-pyrazol-4-yl)-6-(3-chloro-6-(difluoromethoxy)-2-fluorophenyl)pyrazine-2-carboxamide], the half-inhibitory concentration (IC50) on Human plasma kallikrein was 6.8 nM; on human factor XIa it was 1170 nM.
As for `CC(c1cnc(N2CCC2)nc1)n1cc(NC(=O)c2cncc(-c3cc(Cl)ccc3-n3cnnn3)n2)cn1` (single isomer, unassigned) [Example 58, (S or R)-N-(1-(1-(2-(Azetidin-1-yl)pyrimidin-5-yl)ethyl)-1H-pyrazol-4-yl)-6-(5-chloro-2-(1H-tetrazol-1-yl)phenyl)pyrazine-2-carboxamide], the IC50 stood at 8.1 nM at Human plasma kallikrein and 413 nM at human factor XIa.
On to `CC(c1cnc(N2CCC2)nc1)n1cc(NC(=O)c2cncc(-c3cc(Cl)ccc3-n3cnnn3)n2)cn1` (single isomer, unassigned) [Example 59, (R or S)-N-(1-(1-(2-(Azetidin-1-yl)pyrimidin-5-yl)ethyl)-1H-pyrazol-4-yl)-6-(5-chloro-2-(1H-tetrazol-1-yl)phenyl)pyrazine-2-carboxamide], for which the IC50 on Human plasma kallikrein was 1.8 nM; at human factor XIa, 372 nM.
In the same order, the values of `COc1ccc(-n2cnnn2)c(-c2cncc(C(=O)Nc3cnn(C(C)c4cnc(N5CCC5)nc4)c3)n2)c1` (single isomer, unassigned) [Example 60, (S or R)-N-(1-(1-(2-(Azetidin-1-yl)pyrimidin-5-yl)ethyl)-1H-pyrazol-4-yl)-6-(5-methoxy-2-(1H-tetrazol-1-yl)phenyl)pyrazine-2-carboxamide] are 47 nM and 730 nM.
In the same order, the values of `COc1ccc(-n2cnnn2)c(-c2cncc(C(=O)Nc3cnn(C(C)c4cnc(N5CCC5)nc4)c3)n2)c1` (single isomer, unassigned) [Example 61, (R or S)-N-(1-(1-(2-(Azetidin-1-yl)pyrimidin-5-yl)ethyl)-1H-pyrazol-4-yl)-6-(5-methoxy-2-(1H-tetrazol-1-yl)phenyl)pyrazine-2-carboxamide] are 14 nM and 662 nM.
For the compound `Cc1cc(N2CCC2)ncc1[C@H](C)n1cc(NC(=O)c2cncc(-c3c(C(F)F)ccc(Cl)c3F)n2)cn1` (single isomer, unassigned) [Example 66], the IC50 was found to be 3.9 nM on Human plasma kallikrein and 639 nM at human factor XIa.
In the same order, the values of `Cc1nc(N2CCC2)ncc1[C@H](C)n1cc(NC(=O)c2cncc(-c3c(C(F)F)ccc(Cl)c3F)n2)cn1` (single isomer, unassigned) [Example 69] are 64.3 nM and 8070 nM.
In the same order, the values of `Cc1nc(N2CCC2)ncc1[C@@H](C)n1cc(NC(=O)c2cncc(-c3c(C(F)F)ccc(Cl)c3F)n2)cn1` (single isomer, unassigned) [Example 70] are 1.4 nM and 485 nM.
In the case of `C[C@@H](c1cnc(N2C[C@@H]3C[C@@H]3[C@@H]2CO)nc1)n1cc(NC(=O)c2cncc(-c3c(C(F)F)ccc(Cl)c3F)n2)cn1` (single isomer, unassigned) [Example 71, 6-(3-Chloro-6-(difluoromethyl)-2-fluorophenyl)-N-(1-((S or R)-1-(2-((1S,2R,5R or 1R,2S,5S)-2-(hydroxymethyl)-3-azabicyclo[3.1.0]hexan-3-yl)pyrimidin-5-yl)ethyl)-1H-pyrazol-4-yl)pyrazine-2-carboxamide], the half-inhibitory concentration (IC50) is 2.5 nM on Human plasma kallikrein and 2260 nM at human factor XIa.
In the same order, the values of `C[C@@H](c1cnc(N2C[C@@H]3C[C@@H]3[C@@H]2CO)nc1)n1cc(NC(=O)c2cncc(-c3c(C(F)F)ccc(Cl)c3F)n2)cn1` (single isomer, unassigned) [Example 74, 6-(3-Chloro-6-(difluoromethyl)-2-fluorophenyl)-N-(1-((S or R)-1-(2-((1S,2R,5R or 1R,2S,5S)-2-(hydroxymethyl)-3-azabicyclo[3.1.0]hexan-3-yl)pyrimidin-5-yl)ethyl)-1H-pyrazol-4-yl)pyrazine-2-carboxamide] are 4.3 nM and 1020 nM.
In the same order, the values of `C[C@@H](c1cnc(N2C[C@@H]3C[C@@H]3[C@@H]2CO)nc1)n1cc(NC(=O)c2cncc(-c3c(C(F)F)ccc(Cl)c3F)n2)cn1` (single isomer, unassigned) [Example 76, 6-(3-Chloro-6-(difluoromethyl)-2-fluorophenyl)-N-(1-((S or R)-1-(2-((1S,2R,5R or 1R,2S,5S)-2-(hydroxymethyl)-3-azabicyclo[3.1.0]hexan-3-yl)pyrimidin-5-yl)ethyl)-1H-pyrazol-4-yl)pyrazine-2-carboxamide] are 5.4 nM and 4640 nM.
On to `O=C(Nc1cnn(Cc2cnc(N3CC4CC4C3CO)nc2)c1)c1cncc(-c2c(C(F)F)ccc(Cl)c2F)n1` (single isomer, unassigned) [Example 77, 6-(3-Chloro-6-(difluoromethyl)-2-fluorophenyl)-N-(1-((2-((1R,2S,5S or 1S,2R,5R)-2-(hydroxymethyl)-3-azabicyclo[3.1.0]hexan-3-yl)pyrimidin-5-yl)methyl)-1H-pyrazol-4-yl)pyrazine-2-carboxamide], for which the IC50 is 5.6 nM at Human plasma kallikrein and 2950 nM at human factor XIa.
Regarding `O=C(Nc1cnn(Cc2cnc(N3CC4CC4C3CO)nc2)c1)c1cncc(-c2c(C(F)F)ccc(Cl)c2F)n1` (single isomer, unassigned) [Example 79, 6-(3-Chloro-6-(difluoromethyl)-2-fluorophenyl)-N-(1-((2-((1R,2S,5S or 1S,2R,5R)-2-(hydroxymethyl)-3-azabicyclo[3.1.0]hexan-3-yl)pyrimidin-5-yl)methyl)-1H-pyrazol-4-yl)pyrazine-2-carboxamide], the half-inhibitory concentration (IC50) came out at 5.9 nM on Human plasma kallikrein and 2860 nM on human factor XIa.
In the case of `CC(c1cnc(N2CC3(CC3)C2)nc1)n1cc(NC(=O)c2cncc(-c3c(C(F)F)ccc(Cl)c3F)n2)cn1` (single isomer, unassigned) [Example 93, (R or S)-N-(1-(1-(2-(5-Azaspiro[2.3]hexan-5-yl)pyrimidin-5-yl)ethyl)-1H-pyrazol-4-yl)-6-(3-chloro-6-(difluoromethyl)-2-fluorophenyl)pyrazine-2-carboxamide], the values for the concentration for half-maximal inhibition (IC50) against Human plasma kallikrein and on human factor XIa were 19.9 nM and 4310 nM, respectively.
